Experiments:
[1] = test system: Homo sapiens; assay: Unbound renal drug clearance in healthy human subjects (6 subjects) at 500 mg, iv by Sarcina lutea based bioassay; assay type: ADME, organism-based, Kidney; details: in vivo
[2] = test system: Homo sapiens; assay: Unbound renal drug clearance in patient with severe cirrhosis (5 patients) at 500 mg, iv by Sarcina lutea based bioassay; assay type: ADME, organism-based, Kidney; details: in vivo
[3] = Volume of distribution at steady state in patient with severe cirrhosis (5 patients) at 500 mg, iv by Sarcina lutea based bioassay; assay type: ADME, organism-based; details: human, in vivo, read-out: Vdss
[4] = Unbound fraction in serum of patient with severe cirrhosis (5 patients) at 500 mg, iv by Sarcina lutea based bioassay; assay type: ADME, organism-based; details: human
[5] = Unbound fraction in serum of healthy human subjects (6 subjects) at 500 mg, iv by Sarcina lutea based bioassay; assay type: ADME, organism-based
[6] = Volume of distribution at steady state in healthy human subjects (6 subjects) at 500 mg, iv by Sarcina lutea based bioassay; assay type: ADME, organism-based; details: in vivo, read-out: Vdss
[7] = Total drug clearance in patient with severe cirrhosis (5 patients) at 500 mg, iv by Sarcina lutea based bioassay; assay type: ADME, organism-based; details: human, in vivo
[8] = Total drug clearance in healthy human subjects (6 subjects) at 500 mg, iv by Sarcina lutea based bioassay; assay type: ADME, organism-based; details: in vivo
[9] = test system: Homo sapiens; assay: Unbound drug clearance in patient with severe cirrhosis (5 patients) at 500 mg, iv by Sarcina lutea based bioassay; assay type: ADME, organism-based; details: in vivo
[10] = test system: Homo sapiens; assay: Unbound drug clearance in healthy human subjects (6 subjects) at 500 mg, iv by Sarcina lutea based bioassay; assay type: ADME, organism-based; details: in vivo
[11] = test system: Homo sapiens; assay: Unbound non-renal drug clearance in patient with severe cirrhosis (5 patients) at 500 mg, iv by Sarcina lutea based bioassay; assay type: ADME, organism-based; details: in vivo
[12] = test system: Homo sapiens; assay: Unbound non-renal drug clearance in healthy human subjects (6 subjects) at 500 mg, iv by Sarcina lutea based bioassay; assay type: ADME, organism-based; details: in vivo
[13] = Terminal half life in patient with severe cirrhosis (5 patients) at 500 mg, iv by Sarcina lutea based bioassay; assay type: ADME, organism-based; details: human, in vivo, read-out: beta t1/2 (converted)
[14] = Terminal half life in healthy human subjects (6 subjects) at 500 mg, iv by Sarcina lutea based bioassay; assay type: ADME, organism-based; details: in vivo, read-out: beta t1/2 (converted)

## CC[C@H]1OC(=O)[C@H](C)[C@@H](O[C@H]2C[C@@](C)(OC)[C@@H](O)[C@H](C)O2)[C@H](C)[C@@H](O[C@@H]2O[C@H](C)C[C@H](N(C)C)[C@H]2O)[C@](C)(O)C[C@@H](C)C(=O)[C@H](C)[C@@H](O)[C@]1(C)O.O=C(O)[C@H](O)[C@@H](O)[C@H](O[C@@H]1O[C@H](CO)[C@@H](O)[C@@H](O)[C@H]1O)[C@H](O)CO
[1]
  CL free: 14.5 L/h
[2]
  CL free: 11.2 L/h
[3]
  Vd: 85.5 L
[4]
  fraction unbound: 0.583
[5]
  fraction unbound: 0.305
[6]
  Vd: 57.6 L
[7]
  clearance: 403 mL/min
[8]
  clearance: 570 mL/min
[9]
  CL free: 42.2 L/h
[10]
  CL free: 113.2 L/h
[11]
  CL free: 31.6 L/h
[12]
  CL free: 98.6 L/h
[13]
  half-life: 134 min
[14]
  half-life: 81.6 min
